Experimental data as given in patent publication US20040038199A1, “Phenotyping assay and reagents therefor” (priority 2000, published 2004).
Read-outs that look alike come from different tables or passages of the source.

Columns and labels:
Assay type in all cases: cell-based, HIV-1
[1] = test system: Virus 2 (recombinant generated from plasma of Subject 2 by RVA); experiment: MTT-reduction cell viability drug susceptibility assay, recombinant Virus 2 (RVA); settings: for EC50 / fold resistance: Table 3A, Virus 2, method RVA; for fold resistance: relative to WT (HXB2); for resistance, fold higher than wild-type: Virus 2 obtained via the RVA
Method: (§1) As previously discussed, recombinant virus produced by the method of the present invention may be used in drug sensitivity assays. A suitable drug sensitivity assay is described in Pauwels et al. (1988) and is an MTT-reduction colorimetric cell viability assay. Cells infected with the virus are plated into the wells of tissue culture plates and incubated with the anti-viral drug to be tested. After incubation, MTT (3-(4,5-dimethylthiazol-2-yl)-2,5diphenyltetrazolium bromide) is added to the cell culture. Only live cells produce the blue formazan product after incubation with MTT. This product is detectable by reading the optical absorbance at 540-590 nm, so the absorbance reading gives a measure of the cells which have been protected from the virus by the anti-viral drug. Viral drug resistance results in a decrease in surviving cells and a decrease in absorbance at 540-590 nm.
(§2) In this experiment, plasma from three HIV-1 infected subjects experiencing virological failure on PI-containing therapy regimens was used as the basis for the FPH to generate recombinant virus. […] Virus from Subject 2 had L10I, M46I, I50V and a Lp1′F mutation at the p1/p6 protease cleavage site, all of which are mutations typical of high level APV resistance.
(§3) The LTR was added to the nested products by PMR prior to transfection. The PMR reactions successfully added the LTR sequences to the nested products (FIG. 9). The first round RT-PCR reactions were also used as templates to generate products for RVA by cotransfection with pHXBΔCSPRTC. Triplicate PCR products were cotransfected into MT4 cells with the linearised plasmid pHXBTOPO1, in the case of the PMR products, and with linearised pHXBΔCSPRTC in for the RVA products. Viral cytopathic effect was observed and titratable virus was harvested in the supernatants. No virus was isolated from virus 2 using FPH and only one of the triplicate cultures from virus 3 yielded infectious virus. All of the RVA cultures produced virus.
(§4) In order to determine whether the extra sequences in the FPH recombinants contain determinants of susceptibility, the recombinant viruses were tested against several drugs. Drug susceptibility was determined by the 3-(4,5dimethylthiazol-2-yl)-2,5-diphenyltetrazolium bromide (MTT)-reduction calorimetric cell viability assay described previously (Pauwels et al. 1988; Robinson et al., 2000). Changes in susceptibility were defined as fold increase in IC50 relative to WT (HXB2). Nucleotide sequences were determined using ABI 3700 capillary sequencers and Big Dye terminators. […] Virus 1 also gave a 2.2-fold (Table 3A) or 4-fold (Table 3B) higher susceptibility to IDV and 2.9-fold (Table 3A) or 3.2-fold higher susceptibility to APV when generated by RVA.

[2] = test system: Virus 1 (recombinant generated from plasma of Subject 1 by FPH or RVA); experiment: MTT-reduction cell viability drug susceptibility assay, recombinant Virus 1 (FPH or RVA); settings: for fold resistance: relative to WT (HXB2); for fold higher susceptibility when generated by RVA than when generated by FPH: virus 1
Method: as §1, §2, §3, §4

[3] = test system: WT (HXB2) generated by FPH or RVA; experiment: MTT-reduction cell viability drug susceptibility assay, WT (Table 3B); settings: for EC50: Human immunodeficiency virus 1, HXB2, Table 3B; for fold resistance: Table 3B
Method: as §1, §4

[4] = test system: Virus 5.1 (FPH), 5.2 (RVA); experiment: MTT-reduction cell viability drug susceptibility assay, viruses 5.1 and 5.2 (Table 3B); settings: for EC50: Human immunodeficiency virus 1, Table 3B; for fold resistance: Table 3B, relative to WT
Method: as §1, §3, §4

[5] = test system: Virus 3 (recombinant generated from plasma of Subject 3 by FPH or RVA); experiment: MTT-reduction cell viability drug susceptibility assay, recombinant Virus 3 (FPH or RVA); settings: for fold resistance: relative to WT (HXB2); for difference in susceptibility between the two techniques (RVA vs FPH): virus 3
Method: as §1, §2, §3, §4

HXB2 = experiment: MTT-reduction cell viability drug susceptibility assay, wild type HXB2 (Table 3A); settings: for fold resistance: HXB2 wild type (reference)
Method: as §1, §4

[6] = test system: Virus 3.1, 3.2, 3.3 (recombinants by FPH or RVA); experiment: MTT-reduction cell viability drug susceptibility assay, viruses 3.1-3.3 (Table 3B); settings: for fold resistance: Table 3B, relative to WT
Method: as §1, §3, §4

[7] = test system: Virus 4.1, 4.2, 4.3 (recombinants by RVA); experiment: MTT-reduction cell viability drug susceptibility assay, viruses 4.1-4.3 (Table 3B); settings: for EC50: Human immunodeficiency virus 1, Table 3B; for fold resistance: Table 3B, relative to WT
Method: as §1, §3, §4

[8] = Human immunodeficiency virus 1, Table 3A, Virus 1, method RVA, read-out: Drug EC50
[9] = Human immunodeficiency virus 1, read-out: Drug EC50, Table 3A, Virus 1, method FPH
[10] = Human immunodeficiency virus 1, Table 3A, Virus 3, method FPH
[11] = Human immunodeficiency virus 1, Table 3A, Virus 3, method RVA
[12] = Human immunodeficiency virus 1, HXB2 wild type
[13] = Human immunodeficiency virus 1, Table 3B, Virus 3.1, method FPH, read-out: Drug EC50
[14] = Human immunodeficiency virus 1, Table 3B, Virus 3.2, method FPH, read-out: Drug EC50
[15] = Human immunodeficiency virus 1, Table 3B, Virus 3.2, method RVA, read-out: Drug EC50
[16] = Human immunodeficiency virus 1, Table 3B, Virus 3.3, method FPH, read-out: Drug EC50
[17] = Human immunodeficiency virus 1, read-out: Drug EC50, Table 3B, Virus 3.1, method RVA

For `CC(C)CN(C[C@@H](O)[C@H](Cc1ccccc1)NC(=O)O[C@H]1CCOC1)S(=O)(=O)c1ccc(N)cc1` [APV, amprenavir], the EC50 ([1]; Human immunodeficiency virus 1) was 1070 nM, the fold resistance [1] was “(16) fold” and the “resistance, fold higher than wild-type” value ([1]; Table 3B experiment) was greater than 21 fold. For the same compound, the “resistance, fold higher than wild-type” value ([1]; first printed value (Table 3A experiment)) was 16 fold, the EC50 [2, 8] was 128 nM and the EC50 [2, 9] was 366 nM. The fold resistance ([2]; Table 3A, Virus 1, method FPH) was “(5.4) fold”, the fold resistance ([2]; Table 3A, Virus 1, method RVA) was “(1.9) fold” and the “fold higher susceptibility when generated by RVA than when generated by FPH” value (“fold higher susceptibility” for short) ([2]; Table 3A experiment) was 2.9 fold. For the same compound, the “fold higher susceptibility” value ([2]; Table 3B experiment) was 3.2 fold, the EC50 ([3]; method FPH) was 113 nM and the EC50 ([3]; method RVA) was 121 nM. For the same compound, the fold resistance ([3]; method FPH (reference)) was “(1.0) fold”, the fold resistance ([3]; method RVA (reference)) was “(1.0) fold” and the EC50 ([4]; Virus 5.1, method FPH) was 1570 nM. The EC50 ([4]; Virus 5.2, method RVA) was 802 nM, the fold resistance ([4]; Virus 5.1, method FPH) was “(14) fold” and the fold resistance ([4]; Virus 5.2, method RVA) was “(6.6) fold”. The EC50 [5, 10] was 718 nM, the EC50 [5, 11] was 396 nM and the fold resistance ([5]; Table 3A, Virus 3, method FPH) was “(11) fold”. For the same compound, the fold resistance ([5]; Table 3A, Virus 3, method RVA) was “(5.9) fold”, the “difference in susceptibility between the two techniques (RVA vs FPH)” value ([5]; Table 3B experiment) was 2.0 fold and the “difference in susceptibility between the two techniques (RVA vs FPH)” value ([5]; first of the two printed values (Table 3A experiment)) was 1.9 fold. For the same compound, the fold resistance (HXB2) was “(1.0) fold”, the EC50 (HXB2; [12]) was 67.5 nM and the EC50 [6, 13] was 865 nM. The EC50 [6, 14] was 691 nM, the EC50 [6, 15] was 245 nM and the EC50 [6, 16] was 619 nM. For the same compound, the EC50 [6, 17] was 211 nM, the fold resistance ([6]; Virus 3.1, method FPH) was “(7.7) fold” and the fold resistance ([6]; Virus 3.1, method RVA) was “(1.7) fold”. For the same compound, the fold resistance ([6]; Virus 3.2, method FPH) was “(6.1) fold”, the fold resistance ([6]; Virus 3.2, method RVA) was “(2.0) fold” and the fold resistance ([6]; Virus 3.3, method FPH) was “(5.5) fold”. For the same compound, the EC50 ([7]; Virus 4.1, method RVA) was greater than 2500 nM, the EC50 ([7]; Virus 4.2, method RVA) was 2010 nM and the EC50 ([7]; Virus 4.3, method RVA) was greater than 2500 nM. For the same compound, the fold resistance ([7]; Virus 4.1, method RVA) was “(>21) fold”, the fold resistance ([7]; Virus 4.2, method RVA) was “(17) fold” and the fold resistance ([7]; Virus 4.3, method RVA) was “(>21) fold”.

`CC(C)(C)NC(=O)[C@@H]1C[C@@H]2CCCC[C@@H]2CN1C[C@@H](O)[C@H](Cc1ccccc1)NC(=O)[C@H](CC(N)=O)NC(=O)c1ccc2ccccc2n1` [SQV] was tested, and the EC50 [1] was 9.06 nM, the fold resistance [1] was “(0.69) fold” and the EC50 ([2]; Table 3A, Virus 1, method FPH, read-out: Drug EC50) was 13.1 nM. For the same compound, the fold resistance ([2]; Table 3A, Virus 1, method FPH) was “(1.0) fold”, the EC50 ([2]; Table 3A, Virus 1, method RVA, read-out: Drug EC50) was 6.56 nM and the fold resistance ([2]; Table 3A, Virus 1, method RVA) was “(0.5) fold”. The EC50 ([5]; Table 3A, Virus 3, method FPH) was 16.4 nM, the fold resistance ([5]; Table 3A, Virus 3, method FPH) was “(1.3) fold” and the EC50 ([5]; Table 3A, Virus 3, method RVA) was 13.7 nM. For the same compound, the fold resistance ([5]; Table 3A, Virus 3, method RVA) was “(1.0) fold”, the EC50 (HXB2; HXB2 wild type) was 13.1 nM and the fold resistance (HXB2) was “(1.0) fold”.

In the case of `CC(C)(C)NC(=O)[C@@H]1CN(Cc2cccnc2)CCN1C[C@@H](O)C[C@@H](Cc1ccccc1)C(=O)N[C@H]1c2ccccc2C[C@H]1O` [IDV, indinavir], the EC50 ([1]; Human immunodeficiency virus 1) is reported as 18.7 nM, the fold resistance [1] is reported as “(0.63) fold” and the EC50 [2, 8] is reported as 14.2 nM. The EC50 [2, 9] was 31.2 nM, the fold resistance ([2]; Table 3A, Virus 1, method FPH) was “(1.1) fold” and the fold resistance ([2]; Table 3A, Virus 1, method RVA) was “(0.48) fold”. The “fold higher susceptibility” value ([2]; Table 3A experiment) was 2.2 fold, the “fold higher susceptibility” value ([2]; Table 3B experiment) was 4 fold and the EC50 ([3]; method FPH) was 30.8 nM. For the same compound, the EC50 ([3]; method RVA) was 31.2 nM, the fold resistance ([3]; method FPH (reference)) was “(1.0) fold” and the fold resistance ([3]; method RVA (reference)) was “(1.0) fold”. The EC50 ([4]; Virus 5.1, method FPH) was 2230 nM, the EC50 ([4]; Virus 5.2, method RVA) was 1520 nM and the fold resistance ([4]; Virus 5.1, method FPH) was “(72) fold”. For the same compound, the fold resistance ([4]; Virus 5.2, method RVA) was “(49) fold”, the EC50 [5, 10] was 1250 nM and the EC50 [5, 11] was 689 nM. The fold resistance ([5]; Table 3A, Virus 3, method FPH) was “(42) fold”, the fold resistance ([5]; Table 3A, Virus 3, method RVA) was “(23) fold” and the fold resistance (HXB2) was “(1.0) fold”. The EC50 (HXB2; [12]) was 29.7 nM, the EC50 [6, 13] was 60.1 nM and the EC50 [6, 14] was 57.1 nM. The EC50 [6, 15] was 16.5 nM, the EC50 [6, 16] was 53.2 nM and the EC50 [6, 17] was 11.6 nM. The fold resistance ([6]; Virus 3.1, method FPH) was “(2.0) fold”, the fold resistance ([6]; Virus 3.1, method RVA) was “(−2.7) fold” and the fold resistance ([6]; Virus 3.2, method FPH) was “(1.9) fold”. The fold resistance ([6]; Virus 3.2, method RVA) was “(−1.9) fold”, the fold resistance ([6]; Virus 3.3, method FPH) was “(1.7) fold” and the EC50 ([7]; Virus 4.1, method RVA) was 65 nM. For the same compound, the EC50 ([7]; Virus 4.2, method RVA) was 23.8 nM, the EC50 ([7]; Virus 4.3, method RVA) was 39.3 nM and the fold resistance ([7]; Virus 4.1, method RVA) was “(2.1) fold”. For the same compound, the fold resistance ([7]; Virus 4.2, method RVA) was “(−1.3) fold” and the fold resistance ([7]; Virus 4.3, method RVA) was “(1.3) fold”.
